Experimental data as given in patent publication US20220339144A1, “PYRIDINYL INDOLE COMPOUNDS AND METHODS OF USE THEREOF” (Chinook Therapeutics Canada, Inc., priority 2021, published 2022).

Assays:
[1] = molecular target: T1, AMPKα1β2γ1 (Homo sapiens, UniProt O43741+Q13131); assay: AMPKα1β2γ1 biochemical assay (LabChip EZ Reader mobility shift); settings: second EC50 column of Table 1 (head repeats α1β1γ1; text says α1β2γ1 isoform); read-out: Human AMPK AMPKα1β1γ1 EC50
T1 construct: purchased Carna Biosciences (printed only as 'Biosciences') 02-147
Description: (§1) Compounds disclosed herein were evaluated for their ability to activate AMPKα1β1γ1 by measuring phosphorylation of a commercially available fluorescent AMPK substrate using the LabChip® EZ Reader microfluidic system that is based on a mobility shift principle in which unphosphorylated fluorescent substrates may be separated and distinguished from phosphorylated fluorescent substrates due to the difference in negative charge. Briefly, compounds were serial diluted 3-fold in 100% DMSO for an 11-point dose-response curve. A 20 nL aliquot of diluted compound was transferred into a 384-well plate using a liquid handler (Labcyte Inc., Echo 550). A pre-prepared solution (10 mM MgCl2, 0.01% Brij-35, 2 mM DTT, 0.05% BSA, 1 mM EGTA, and 50 mM HEPES pH 7.5) was combined with 0.83 nM AMPKα1β1γ1 (Carna Biosciences, 02-113). The enzyme solution (15 μL) was aliquoted into each well and the plate was incubated at 24° C. for 30 min. A second stock solution (10 mM MgCl2, 0.01% Brij-35, 2 mM DTT, 0.05% BSA, 1 mM EGTA, 800 μM ATP, and 50 mM HEPES pH 7.5) was combined with 6 μM fluorescent peptide substrate for AMPKal (Perkin Elmer, 760351). The kinase reaction was initiated by adding 5 μL of the second solution containing substrate and ATP to each well. The plate was incubated at 24° C. for 90 minutes and 75 μL of 0.5 M EDTA was added to terminate the reaction. The plates were analyzed using a LabChip® EZ Reader (Perkin Elmer, 122919) and the effective concentration to achieve 50% of the maximal activity (EC50) was calculated after normalizing to the DMSO vehicle control.
The same procedure above was also used to measure activation of the AMPKα1β2γ1 isoform, replacing AMPKα1β1γ1 with AMPKα1β2γ1 Biosciences 02-147).

[2] = molecular target: T2, AMPKα1β1γ1 (Homo sapiens, UniProt Q13131+Q9Y478); assay: AMPKα1β1γ1 biochemical assay (LabChip EZ Reader mobility shift); settings: EC50 of Table 1; activation, normalized to DMSO vehicle control; read-out: Human AMPK AMPKα1β1γ1 EC50
T2 construct: purchased Carna Biosciences 02-113
Description: as §1

[3] = tested on: miniature pig model of ADPKD; settings: cited from earlier work
[4] = tested on: high fat diet mice; settings: cited from earlier work
[5] = tested on: orthologous mouse model of ADPKD; settings: cited from earlier work
[6] = tested on: ZSF1 rat model of diabetic nephropathy; settings: cited from earlier work
[7] = tested on: Pkd1 knockout mouse model of ADPKD; settings: orthologous Pkd1 knockout mouse model of ADPKD; cited from earlier work
[8] = tested on: Wistar Han rats; settings: 14 days of treatment in Wistar Han rats; cited from earlier work
[9] = ZSF1 progressive rat model of diabetic nephropathy

T2 sequence (Q13131 whole entry): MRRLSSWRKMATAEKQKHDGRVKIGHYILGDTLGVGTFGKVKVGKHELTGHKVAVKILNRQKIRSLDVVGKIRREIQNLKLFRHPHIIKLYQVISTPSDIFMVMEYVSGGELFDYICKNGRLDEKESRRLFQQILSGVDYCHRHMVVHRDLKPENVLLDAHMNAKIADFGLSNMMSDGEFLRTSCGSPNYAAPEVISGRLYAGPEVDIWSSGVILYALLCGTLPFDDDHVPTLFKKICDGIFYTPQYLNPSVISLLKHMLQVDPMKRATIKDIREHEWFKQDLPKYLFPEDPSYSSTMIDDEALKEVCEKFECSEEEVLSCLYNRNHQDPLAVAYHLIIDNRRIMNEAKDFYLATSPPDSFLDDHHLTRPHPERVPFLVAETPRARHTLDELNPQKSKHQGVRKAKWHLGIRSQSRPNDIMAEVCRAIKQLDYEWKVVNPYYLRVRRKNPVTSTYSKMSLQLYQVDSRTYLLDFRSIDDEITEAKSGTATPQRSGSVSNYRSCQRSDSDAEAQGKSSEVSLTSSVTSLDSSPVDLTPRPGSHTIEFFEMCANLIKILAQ
T2 sequence (Q9Y478 whole entry): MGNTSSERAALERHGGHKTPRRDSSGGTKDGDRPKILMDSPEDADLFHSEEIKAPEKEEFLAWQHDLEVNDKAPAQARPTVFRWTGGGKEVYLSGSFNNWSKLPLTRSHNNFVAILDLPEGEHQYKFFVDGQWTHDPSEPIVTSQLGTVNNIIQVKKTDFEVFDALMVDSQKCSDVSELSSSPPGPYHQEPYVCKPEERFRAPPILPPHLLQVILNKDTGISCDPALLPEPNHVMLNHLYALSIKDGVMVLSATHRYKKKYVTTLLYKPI
T2 sequence (P54619 whole entry partner): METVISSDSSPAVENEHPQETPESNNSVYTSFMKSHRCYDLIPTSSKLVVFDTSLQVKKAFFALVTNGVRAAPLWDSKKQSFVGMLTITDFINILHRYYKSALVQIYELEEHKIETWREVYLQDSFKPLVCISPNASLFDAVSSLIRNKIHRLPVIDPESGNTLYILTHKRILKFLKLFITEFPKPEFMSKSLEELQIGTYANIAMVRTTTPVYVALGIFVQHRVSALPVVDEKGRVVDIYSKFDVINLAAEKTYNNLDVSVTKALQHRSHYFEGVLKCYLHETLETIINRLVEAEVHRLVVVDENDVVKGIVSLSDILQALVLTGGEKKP
T1 sequence (Q13131 whole entry, canonical isoform): as the sequence (Q13131 whole entry) above
T1 sequence (O43741 whole entry, canonical isoform): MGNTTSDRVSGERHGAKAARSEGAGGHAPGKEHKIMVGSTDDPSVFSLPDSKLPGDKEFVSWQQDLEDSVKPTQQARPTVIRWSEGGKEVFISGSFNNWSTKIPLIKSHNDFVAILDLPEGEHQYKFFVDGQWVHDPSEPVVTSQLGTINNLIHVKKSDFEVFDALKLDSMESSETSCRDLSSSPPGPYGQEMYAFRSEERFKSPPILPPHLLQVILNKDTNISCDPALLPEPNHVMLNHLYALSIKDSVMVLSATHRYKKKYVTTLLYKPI
T1 sequence (P54619 whole entry partner, canonical isoform): as the sequence (P54619 whole entry partner) above

COc1nc(N2C[C@H]3CN(C(C)=O)C[C@H]3C2)ccc1-c1cc2c(C(=O)O)c[nH]c2cc1Cl [Example 38, 5-(6-((3aR,6aS)-5-acetylhexahydropyrrolo [3,4-c]pyrrol-2(1H)-yl)-2-methoxypyridin-3-yl)-6-chloro-1H-indole-3-carboxylic acid]
EC50 [1]: 250 to 10000 nM
EC50 [2]: ≤ 50 nM

COc1nc(N2CC3(COC3)C2)ccc1-c1c(F)cc2[nH]cc(C(=O)O)c2c1F [Example 41, 4,6-difluoro-5-(2-methoxy-6-(2-oxa-6-azaspiro[3.3]heptan-6-yl)pyridin-3-yl)-1H-indole-3-carboxylic acid]
EC50 [1]: > 10000 nM
EC50 [2]: ≤ 50 nM

CN(C)C(=N)N=C(N)N [Metformin]
cystic kidney disease [3]: attenuate cystic kidney disease
high fat diet-induced metabolic derangement and renal injury [4]: reduce high fat diet-induced metabolic derangement and renal injury
cystic kidney disease [5]: attenuate cystic kidney disease

O=C(O)c1c[nH]c2cc(Cl)c(-c3ccc(C4(O)CCC4)cc3)cc12 [PF-06409577]
proteinuria ([6]; ZSF1 rat model of diabetic nephropathy): reduced proteinuria

O=C(Oc1ccccc1C(=O)O)c1ccccc1O [salsalate]
cystic disease severity [7]: attenuate cystic disease severity

MK-8722
proteinuria, glomerular filtration rate, and kidney fibrosis [6, 9]: significant improvements
renal protection [6, 9]: renal protective
cardiac glycogen levels [8]: increased cardiac glycogen levels
cardiac hypertrophy [8]: significant cardiac hypertrophy
